Experimental data published in US4372953A, “Tetrazole derivatives, and anti-ulcer composition containing the same” (Otsuka Pharmaceutical Company, Limited, priority 1980, dated 1983).
Where two headings read alike, the source gives them in different places.

Assays:
[1] = Acute toxicity (LD50, p.o.); settings: rat, in vivo; oral, male Wistar rats
Method: The test compounds were orally administered to male Wistar rats, and the half lethal dose (LD50) was measured.

gastric juice secretion = assay: Shay rat pylorus ligation method (gastric juice secretion-inhibiting activity); format: in vivo, male Wistar rats; settings: 4 hours after ligation; for inhibition in vivo at 200 mg/kg / inhibition in vivo at 100 mg/kg: Rattus norvegicus, 4 h; for inhibition in vivo at 200 mg/kg: sc, subcutaneous route
Method: The pharmacological activities of the compounds (1) were tested by a Shay rat pylorus ligation method (cf. H. Shay et al: Gastroenterol., Vol. 5, page 43, 1945) which is the most popular method for testing of gastric juice secretion-inhibiting activity. The test was carried out by using male Wistar rats, weighing about 170 g and fasting for 24 hours.
Test compounds were administered 30 minutes before the pylorus ligation in a dose of 100 mg/kg in subcutaneous route in case of test compounds 37, 38, 50, 51 and 52, in a dose of 200 mg/kg in subcutaneous route in case of test compounds 105 and 106 and in dose of 100 mg/kg in duodenal route in case of other test compounds, and the volume, total acidity and pepsin activity of the gastric juice were measured 4 hours after the ligation. As a control, a saline solution was administered instead of the test compound. The inhibitory ratio (%) of the test compounds were calculated when the inhibitory activities of the control were counted as zero (0).
(§1) In the table, the inhibitory ratio (%) was evaluated as follows: […]

stress ulcer = assay: Stress ulcer (restraint and water immersion); format: in vivo, male Wistar rats; settings: Rattus norvegicus, po, 7 h, read-out: Inhibitory ratio of stress ulcer; for inhibition in vivo: concentration of 1×10^-3 mole; for inhibition in vivo at 300 mg/kg: 0.5% CMC suspension
Method: After male Wistar rats weighing about 170 g was fasted for 24 hours, the rats were restrained in a stress cage and dipped in water bath at 23° C. till chest of the animals. After 7 hours, the rats were killed and the stomach was isolated. Into the isolated stomach 10% formalin (8 ml) was poured and settled. The stomach was cut open at the greater curvature, and the length of each ulcer on the membrane was measured. Sum of the length of all ulcers was shown as ulcer index (UI). The test compound was orally administered to the rats before restraint in a stress cage in a dose of 300 mg/kg in the form of 0.5% CMC suspension in case of test compounds 3, 4, 6, 15 and 27 and in a concentration of 1×10^-3 mole in case of other test compounds. As a control, only the solvent (CMC solution) was administered likewise. The inhibitory ratio (%) of stress ulcer of the test compounds was calculated by the following equation: [formula]
as §1

[2] = system: indomethacin-induced ulcer; assay: Indomethacin-induced ulcer; format: in vivo, male Wistar rats; settings: Rattus norvegicus, 5 h, oral, 30 minutes before indomethacin 20 mg/kg s.c., read-out: Inhibitory ratio of indomethacin-induced ulcer
Method: After male Wistar rats weighing about 160 g was fasted for 24 hours, indomethacin was subcutaneously administered to the rats in a dose of 20 mg/kg in the form of a suspension in a mixture of 0.5% CMC and a small amount of Tween 80 (i.e. polyoxyethylene sorbitan monooleate). After 5 hours, the rats were killed and the stomach was isolated. Into the isolated stomach 10% formalin (8 ml) was poured and settled. The stomach was cut open at the greater curvature, and the length of each ulcer on the membrane was measured, based on which results the inhibitory ratio of the indomethacin-induced ulcer of the test compounds was calculated in the same manner as in Pharmacological Test 2. The test compound was orally administered to the rats in a dose of 100 mg/kg in the form of 0.5% CMC suspension 30 minutes before the administration of indomethacin.
as §1

[3] = read-out: Inhibitory ratio, pepsin activity
[4] = read-out: Inhibitory ratio, total acidity
[5] = read-out: Inhibitory ratio, volume of gastric juice
[6] = 100 mg/kg, duodenal route, star-marked compounds, read-out: Inhibitory ratio, pepsin activity
[7] = 100 mg/kg, duodenal route, star-marked compounds, read-out: Inhibitory ratio, total acidity
[8] = 100 mg/kg, duodenal route, star-marked compounds, read-out: Inhibitory ratio, volume of gastric juice
[9] = 100 mg/kg, duodenal route, read-out: Inhibitory ratio, volume of gastric juice
[10] = 100 mg/kg, duodenal route, read-out: Inhibitory ratio, pepsin activity
[11] = 100 mg/kg, duodenal route, read-out: Inhibitory ratio, total acidity

SMILES | inhibition in vivo (stress ulcer) | inhibition in vivo at 100 mg/kg [2] | inhibition in vivo at 100 mg/kg (gastric juice secretion; [9]) | also measured
CCN(CC)C(=O)CCCn1nnnc1C [Test compound 105, N,N-Diethyl-4-(5-methyl-1,2,3,4-tetrazol-1-yl)butyramide] | > 60% | 30 to 60% |  | LD50 [1]: > 500 mg/kg; inhibition in vivo at 200 mg/kg (gastric juice secretion; [3]): 10 to 50%; inhibition in vivo at 200 mg/kg (gastric juice secretion; [4]): 10 to 50%; inhibition in vivo at 200 mg/kg (gastric juice secretion; [5]): 10 to 50%
Cc1nnc(SCCCSc2nnnn2C)o1 [compound 4] |  | > 60% |  | LD50 [1]: > 500 mg/kg; inhibition in vivo at 100 mg/kg (gastric juice secretion; [6]): 30 to 60%; inhibition in vivo at 100 mg/kg (gastric juice secretion; [7]): > 60%; inhibition in vivo at 100 mg/kg (gastric juice secretion; [8]): > 60%; inhibition in vivo at 300 mg/kg (stress ulcer): > 60%
Cn1nnnc1SCCC[S+]([O-])c1ccccn1 (centres unmarked) [Test compound 44, 3-(1-Methyl-1,2,3,4-tetrazol-5-yl)thiopropyl 2-pyridyl sulfoxide] | > 60% |  | > 50% | LD50 [1]: > 500 mg/kg
CC(CSc1nnnn1C)CSc1nnnn1C [Test compound 9, 1-Methyl-5-[2-methyl-3-(1-methyl-1,2,3,4-tetrazol-5-yl)thiopropyl]thio-1,2,3,4-tetrazole] |  | > 60% |  | 
Cn1nnnc1SCCCCCSc1nnnn1C [Test compound 5, 1-Methyl-5-[5-(1-methyl-1,2,3,4-tetrazol-5-yl)thiopentyl]thio-1,2,3,4-tetrazole] | > 60% | > 60% |  | inhibition in vivo at 100 mg/kg (gastric juice secretion; [6]): 30 to 60%; inhibition in vivo at 100 mg/kg (gastric juice secretion; [7]): > 60%; inhibition in vivo at 100 mg/kg (gastric juice secretion; [8]): > 60%
Cn1nnnc1SCCCC(=O)Cc1ccccc1 [Test compound 57, 1-Methyl-5-(3-benzylcarbonylpropyl)thio-1,2,3,4-tetrazole] | > 60% |  | > 50% | inhibition in vivo at 100 mg/kg (gastric juice secretion; [10]): 10 to 50%; inhibition in vivo at 100 mg/kg (gastric juice secretion; [11]): 10 to 50%
Br.CNC(=N)SCCCCSc1nnnn1C [Test compound 27, 1-Methyl-2-[4-(1-methyl-1,2,3,4-tetrazol-5-yl)thiobutyl]isothiourea hydrobromide] |  |  |  | Inhibitory ratio, volume of gastric juice (gastric juice secretion; 100 mg/kg, duodenal route): + +; inhibition in vivo at 300 mg/kg (stress ulcer): > 60%
Cn1nnnc1SCCCC(=O)c1ccccc1 [Test compound 53, 1-Methyl-5-(3-benzoylpropyl)thio-1,2,3,4-tetrazole] |  | > 60% |  | 
CCN(C(=O)CCCn1nnnc1C)C1CCCCC1 [Test compound 106, N-Ethyl-N-cyclohexyl-4-(5-methyl-1,2,3,4-tetrazol-1-yl)butyramide] |  | 30 to 60% |  | LD50 [1]: > 500 mg/kg; inhibition in vivo at 200 mg/kg (gastric juice secretion; [3]): 10 to 50%; inhibition in vivo at 200 mg/kg (gastric juice secretion; [4]): 10 to 50%; inhibition in vivo at 200 mg/kg (gastric juice secretion; [5]): 10 to 50%
CC(=O)CSc1nnnn1C [Test compound 67] |  | > 60% |  | LD50 [1]: > 500 mg/kg
CC(CSc1ccccn1)CSc1nnnn1C (centres unmarked) [Test compound 34, 1-Methyl-5-[2-methyl-3-(2-pyridyl)thiopropyl]thio-1,2,3,4-tetrazole] | > 60% |  | > 50% | 
Cn1nnnc1SCCCSC1CCCCC1 [Test compound 3, 1-Methyl-5-(3-cyclohexylthiopropyl)thio-1,2,3,4-tetrazole] |  | 30 to 60% |  | inhibition in vivo at 100 mg/kg (gastric juice secretion; [7]): > 60%; inhibition in vivo at 100 mg/kg (gastric juice secretion; [8]): > 60%; inhibition in vivo at 300 mg/kg (stress ulcer): > 60%
Cn1nnnc1SCCCSCc1csc(N)n1 [Test compound 17, 1-Methyl-5-[3-(2-amino-4-thiazolyl)methylthiopropyl]thio-1,2,3,4-tetrazole] | > 60% |  | 10 to 50% | 
Cn1nnnc1SCCCC[S+]([O-])c1nnnn1C (centres unmarked) [Test compound 46, 4-(1-Methyl-1,2,3,4-tetrazol-5-yl)thiobutyl 1-methyl-1,2,3,4-tetrazol-5-yl sulfoxide] | > 60% |  | 10 to 50% | 
Cn1nnnc1SCCCNC(=O)c1ccccc1 [Test compound 88, 1-Methyl-5-(3-benzoylaminopropyl)thio-1,2,3,4-tetrazole] | > 60% |  | > 50% | 
Cn1nnnc1SCCSc1ccccn1 [Test compound 31, 1-Methyl-5-[2-(2-pyridyl)thioethyl]thio-1,2,3,4-tetrazole] | > 60% |  | > 50% | 
Cn1nnnc1SCCCC(=O)c1ccco1 [Test compound 55, 1-Methyl-5-[3-(2-furoyl)propyl]thio-1,2,3,4-tetrazole] | 30 to 60% |  | > 50% | inhibition in vivo at 100 mg/kg (gastric juice secretion; [10]): 10 to 50%; inhibition in vivo at 100 mg/kg (gastric juice secretion; [11]): > 50%
Cn1nnnc1SCCCC(=O)c1ccccn1 [Test compound 74, 1-Methyl-5-[3-(2-pyridyl)carbonylpropyl]thio-1,2,3,4-tetrazole] | > 60% |  | > 50% | 
Cn1nnnc1SCCCCCCSc1ccccn1 [Test compound 33, 1-Methyl-5-[6-(2-pyridyl)thiohexyl]thio-1,2,3,4-tetrazole] | > 60% |  | 10 to 50% | 
CCSCCCSc1nnnn1C [Test compound 7, 1-Methyl-5-(3-ethylthiopropyl)thio-1,2,3,4-tetrazole] | > 60% |  | > 50% | LD50 [1]: > 500 mg/kg
CCN(CC)CCCSc1nnnn1C [Test compound 84, 1-Methyl-5-[3-(N,N-diethylamino)propyl]thio-1,2,3,4-tetrazole] | > 60% | > 60% | 10 to 50% | inhibition in vivo at 100 mg/kg (gastric juice secretion; [10]): 10 to 50%; inhibition in vivo at 100 mg/kg (gastric juice secretion; [11]): 10 to 50%
